Activity data for 8 molecules are collected here from ChEMBL document CHEMBL1221170, “Sensing with TRP channels” (Nat Chem Biol, 2005).

The structures appear in SMILES notation.

Sequence of Transient receptor potential cation channel subfamily A member 1 (Homo sapiens) (O75762 whole entry): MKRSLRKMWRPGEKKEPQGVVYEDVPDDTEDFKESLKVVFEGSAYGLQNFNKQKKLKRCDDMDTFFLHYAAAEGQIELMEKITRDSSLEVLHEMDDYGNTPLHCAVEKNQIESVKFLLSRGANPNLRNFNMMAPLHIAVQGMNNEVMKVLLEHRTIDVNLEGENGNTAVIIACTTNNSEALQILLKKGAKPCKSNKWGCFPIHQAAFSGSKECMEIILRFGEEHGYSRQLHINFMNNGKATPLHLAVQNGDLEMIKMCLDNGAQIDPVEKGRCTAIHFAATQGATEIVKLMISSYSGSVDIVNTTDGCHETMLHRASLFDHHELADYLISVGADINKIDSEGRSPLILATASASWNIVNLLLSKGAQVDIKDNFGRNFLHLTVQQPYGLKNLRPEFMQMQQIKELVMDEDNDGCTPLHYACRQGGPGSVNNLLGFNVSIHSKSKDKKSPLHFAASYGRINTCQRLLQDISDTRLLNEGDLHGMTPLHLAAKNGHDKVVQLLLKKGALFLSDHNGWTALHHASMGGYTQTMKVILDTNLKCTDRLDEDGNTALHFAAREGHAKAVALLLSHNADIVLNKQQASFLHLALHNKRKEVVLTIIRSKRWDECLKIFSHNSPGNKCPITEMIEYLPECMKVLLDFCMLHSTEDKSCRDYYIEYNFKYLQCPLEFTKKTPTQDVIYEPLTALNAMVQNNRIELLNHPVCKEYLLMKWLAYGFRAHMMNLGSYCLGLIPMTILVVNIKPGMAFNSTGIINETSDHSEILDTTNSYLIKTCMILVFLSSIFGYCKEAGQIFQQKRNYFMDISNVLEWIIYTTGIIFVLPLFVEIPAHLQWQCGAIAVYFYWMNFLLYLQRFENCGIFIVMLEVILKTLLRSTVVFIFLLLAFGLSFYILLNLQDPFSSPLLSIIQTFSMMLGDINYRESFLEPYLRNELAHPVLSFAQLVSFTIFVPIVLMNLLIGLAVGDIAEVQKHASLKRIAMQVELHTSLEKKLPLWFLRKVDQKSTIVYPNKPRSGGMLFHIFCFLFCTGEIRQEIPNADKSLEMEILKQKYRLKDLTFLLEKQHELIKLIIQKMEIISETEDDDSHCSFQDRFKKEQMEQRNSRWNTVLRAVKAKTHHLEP
Sequence of Transient receptor potential cation channel subfamily V member 4 (Homo sapiens) (Q9HBA0 whole entry): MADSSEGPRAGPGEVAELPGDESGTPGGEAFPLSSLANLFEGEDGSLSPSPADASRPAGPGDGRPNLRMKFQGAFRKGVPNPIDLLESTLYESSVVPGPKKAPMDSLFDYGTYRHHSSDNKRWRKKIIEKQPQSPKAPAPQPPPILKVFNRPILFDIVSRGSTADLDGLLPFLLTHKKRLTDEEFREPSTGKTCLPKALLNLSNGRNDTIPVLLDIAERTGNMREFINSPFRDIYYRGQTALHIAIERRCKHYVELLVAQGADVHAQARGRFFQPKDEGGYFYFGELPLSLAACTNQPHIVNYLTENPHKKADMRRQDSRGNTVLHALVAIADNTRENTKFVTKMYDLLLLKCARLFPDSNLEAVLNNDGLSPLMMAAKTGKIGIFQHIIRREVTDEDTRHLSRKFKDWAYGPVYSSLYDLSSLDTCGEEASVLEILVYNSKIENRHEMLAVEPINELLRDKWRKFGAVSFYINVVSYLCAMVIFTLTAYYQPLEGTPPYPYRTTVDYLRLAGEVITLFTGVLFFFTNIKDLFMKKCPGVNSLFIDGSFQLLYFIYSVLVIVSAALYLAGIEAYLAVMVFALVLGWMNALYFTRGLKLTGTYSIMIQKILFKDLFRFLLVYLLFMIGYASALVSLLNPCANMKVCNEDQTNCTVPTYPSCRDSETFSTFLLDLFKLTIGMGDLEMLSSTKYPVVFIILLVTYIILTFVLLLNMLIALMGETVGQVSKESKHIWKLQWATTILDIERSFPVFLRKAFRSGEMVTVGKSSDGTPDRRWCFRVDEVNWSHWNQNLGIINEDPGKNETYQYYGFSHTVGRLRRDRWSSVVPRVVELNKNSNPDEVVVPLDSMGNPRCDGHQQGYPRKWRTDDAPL

The target in one assay is Transient receptor potential cation channel subfamily M member 8 (Homo sapiens) (UniProt Q7Z2W7). As to the kind of experiment: Agonist activity at TRPM8. In kind it is functional.
Sequence of Transient receptor potential cation channel subfamily M member 8 (Homo sapiens) (Q7Z2W7 whole entry, looked up): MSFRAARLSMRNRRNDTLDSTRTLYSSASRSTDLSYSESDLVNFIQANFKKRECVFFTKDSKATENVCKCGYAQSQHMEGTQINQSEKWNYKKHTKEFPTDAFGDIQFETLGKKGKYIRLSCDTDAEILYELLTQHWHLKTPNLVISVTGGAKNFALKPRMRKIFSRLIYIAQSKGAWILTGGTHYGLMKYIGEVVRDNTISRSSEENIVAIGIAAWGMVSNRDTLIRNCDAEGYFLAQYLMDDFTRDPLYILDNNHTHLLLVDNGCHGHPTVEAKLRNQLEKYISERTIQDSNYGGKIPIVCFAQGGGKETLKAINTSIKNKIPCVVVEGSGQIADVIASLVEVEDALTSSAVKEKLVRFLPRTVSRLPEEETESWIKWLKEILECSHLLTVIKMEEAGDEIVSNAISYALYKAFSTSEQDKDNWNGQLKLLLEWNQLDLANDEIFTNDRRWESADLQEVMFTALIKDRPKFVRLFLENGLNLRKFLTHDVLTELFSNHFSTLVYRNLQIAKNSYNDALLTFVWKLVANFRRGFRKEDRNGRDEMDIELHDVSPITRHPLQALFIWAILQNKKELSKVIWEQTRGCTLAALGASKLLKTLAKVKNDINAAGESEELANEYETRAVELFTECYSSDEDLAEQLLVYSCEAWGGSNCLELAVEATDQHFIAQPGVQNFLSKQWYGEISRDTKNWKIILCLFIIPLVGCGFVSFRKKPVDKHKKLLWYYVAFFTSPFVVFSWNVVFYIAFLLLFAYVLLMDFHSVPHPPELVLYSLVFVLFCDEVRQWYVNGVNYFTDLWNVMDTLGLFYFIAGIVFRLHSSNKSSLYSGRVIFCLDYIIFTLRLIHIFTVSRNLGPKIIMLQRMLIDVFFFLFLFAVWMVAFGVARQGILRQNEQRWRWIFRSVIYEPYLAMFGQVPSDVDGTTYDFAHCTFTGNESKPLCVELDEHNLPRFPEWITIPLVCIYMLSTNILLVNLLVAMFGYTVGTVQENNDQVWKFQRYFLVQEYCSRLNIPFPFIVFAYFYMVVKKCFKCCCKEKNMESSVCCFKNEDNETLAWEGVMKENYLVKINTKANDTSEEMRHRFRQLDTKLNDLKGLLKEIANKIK
On to `CC1CCC(C(C)C)C(O)C1` (centres undefined), for which the Activity worked out at 10 µM.

Take `O=C1NC(c2cccc([N+](=O)[O-])c2)=CCN1c1ccccc1O`: the Activity came out at 0.099 µM. The molecule `CC12CCC(CC1)C(C)(C)O2` came in with an Activity of 100 µM.

Another assay has as its target Transient receptor potential cation channel subfamily A member 1 (Homo sapiens) (UniProt O75762). Put plainly: Agonist activity at TRPA1. Type of assay: functional.
With `CCCCCc1cc(O)c2c(c1)OC(C)(C)[C@@H]1CCC(C)=C[C@@H]21`, the Activity was determined as 10 µM. As to `O=C1NC(c2cccc([N+](=O)[O-])c2)=CCN1c1ccccc1O`, the Activity came to 0.099 µM. As to `C=CCS[S+]([O-])CC=C` (centres undefined), the Activity came out at 10 µM. For `O=C/C=C/c1ccccc1`, the Activity was 10 µM.

Another assay has as its target Transient receptor potential cation channel subfamily V member 4 (Homo sapiens) (UniProt Q9HBA0). As to the kind of experiment: Agonist activity at TRPV4. In kind it is functional.
`CCCCC/C=C/C/C=C/C/C=C/CC1OC1CCCC(=O)O` (centres undefined) had an Activity of 0.01 µM. Molecule `CCCCCCCCCC(=O)O[C@H]1[C@H](C)[C@]2(O)[C@H](C=C(CO)C[C@@]3(O)C(=O)C(C)=C[C@H]23)[C@H]2C(C)(C)[C@@]12OC(=O)CCCCCCCCC` showed an Activity of 0.099 µM.
